Tested on: CA1 pyramidal neurons
Experiment: Dendritic spine density in hippocampal organotypic slice cultures
Assay type: cell-based, mouse
Procedure: Wilde type (C57B1/6) mice were housed in a temperature-controlled room and maintained on a 12 hr light/dark cycle. Food and water were available ad libitum and experiments were carried out in accordance with the local authorization guidelines for the care and use of laboratory animals. Slice cultures were established according to the procedure described by Stoppini and colleagues (Galimberti et al., 2006; Stoppini et al., 1991). […] For organotypic slice cultures, brains of P6-P9 transgenic mice were dissected in cold MEM (GIBCO) medium, and hippocampal coronal sections of 400 μm were obtained with a tissue chopper (McIlwain). Slices were selected, placed on Millicell (Millipore, PICM03050) and cultured in 6-well dishes at 35° C. and 5% CO2 in the presence of 1 ml of medium. The entire slice isolation procedure took about 30 min. The culture medium was exchanged every third day. Treatments were performed in fresh culture medium for the indicated time periods.
Brain slices were transfected with plasmids encoding shCont, and shShank3 using helios gene gun system (Bio-Rad Laboratories, #165-2431) as previously described (Proenca et al., 2013). Subsequently, slices were fixed, stained, mounted, and analyzed following the protocols described below in the immunohistochemistry and microscopy paragraphs.
Slices were fixed for 10 minutes in 4% PFA, washed in PBS and blocked for 4 hr at room temperature in 0.3% Triton X-100 20% Horse Serum/PBS (blocking solution). GFP primary antibody was incubated for 24 hr at 4° C. in the blocking solution. Afterwards, slices were washed in PBS, incubated for 2 hr in 0.3% Triton X-100/PBS with Alexa Fluor® 488 Donkey anti-chicken secondary antibody (Life technologies). Finally, slices were washed in PBS, incubated 10 minutes with DAPI (Life technologies) and mounted on glass slides using ProLong mountant (Life technologies).
High resolution images were acquired on an upright Zeiss LSM700 confocal microscope, using a Plan-Neofluar 100×/1.3 oil immersion objective. For the analysis of dendritic spine density, confocal 3D stacks were acquired in CA1 region for each experiment. To quantify spine density, a stretch of approximately 30 μm was selected on secondary dendrites originating at the branch point from the primary dendrite. Only secondary dendrites were considered to reduce variability. Dendritic length was measured using the ImageJ plugin, Simple Neurite tracer, and spine density manually counted using the Cell Counter plugin.
The above findings implicate CLK2 overexpression as a specific anomaly that is causative for attenuated Akt activity in neurons deficient for Shank3. Consequently, inhibiting CLK2 activity or directly activating Akt would restore neuronal impairments associated with Shank3 loss of function. First, a small-molecule Akt-activator, SC79, was tested for its ability to restore Akt phosphorylation (FIG. 5A). SC79 binds directly to Akt to facilitate an ‘open’ conformation of the protein that is accessible to upstream activating kinases (eg. PDK1). This obviates the need for PtdIns(3,4,5)P3 (PIP3) production and recruitment of Akt to the plasma membrane (Rodgers, Cell Metab. 11, 23-34, 2010). […] Decreased principal neuron dendritic spine density has frequently been observed in Shank3 loss of function models (Durand et al., 2007, Nature Genetics 39: 25-27; Peca et al., 2011, Nature 472: 437-442; Verpelli et al., 2011, The Journal of Biological Chemistry 286: 34839-34850). Knock-down of Shank3 in hippocampal organotypic slice cultures, via biolistic transfection of shRNA vectors, faithfully recapitulated this phenotype in CA1 pyramidal neurons, whereby a two-fold reduction in apical dendrite spine density resulted (FIG. 6A). […]

Structure (SMILES)	spine density (Shank3 knock down neurons, 4 μg/ml SC79, 24 hr, DIV 14)	spine density (control neurons, 4 μg/ml SC79, 24 hr, DIV 14)	spine density (Shank3 knock down neurons, TG003 24 hours)	dendritic spine density (knockdown of Shank3 with additional shRNAs, 24 h pre-treatment with TG003, fixed DIV 14)
CCOC(=O)C1=C(N)Oc2ccc(Cl)cc2C1C(C#N)C(=O)OCC (stereo not shown) [SC79]	rescued the spine density impairment in Shank3 knock down neurons	without significantly affecting controls		
CCN1/C(=C/C(C)=O)Sc2ccc(OC)cc21 [TG003, (Z)-1-(3-ethyl-5-methoxy-2,3-dihydrobenzothiazol-2-ylidene)propan-2-one]			increased spine density in Shank3 knock down neurons to control levels	corrected
